Experimental data from patent publication US9084794B2, “Fatty acid synthase inhibitors” (GlaxoSmithKline Intellectual Property (No. 2) Limited, priority 2011, dated 2015).

Biological target: FAS (Homo sapiens, UniProt P49327)
Assay: FAS activity inhibition (Assay #1 residual NADPH/resazurin or Assay #2 CoA/CPM thio-reactive dye)
Type: biochemical
Conditions: measured through one of the two assays, at least one experiment or the average of multiple experiments
Experimental: FAS activity was measured through one of the two following assays.
Inhibition of FAS activity can be measured based on the detection of residual NADPH substrate after the FAS assay is quenched. This assay is run as a 10 μL endpoint assay in 384-well format, where the reaction contains 20 μM malonyl-CoA, 2 μM acetyl-CoA, 30 μM NADPH and 40 nM FAS in 50 mM sodium phosphate, pH 7.0. The assay is run by sequentially dispensing 5 μl of a malonyl-CoA solution, then enzyme solution Containing the acetyl-CoA, and NADPH) into a black, low volume assay plate (Greiner 784076) pre-dispensed with 100 nL compound solutions in DMSO. The reaction is incubated at ambient temperature for 60 minutes, then quenched with 5 μL, of a developing solution composed of 90 μM resazurin, 0.3 IU/ml diaphorase in 50 mM sodium phosphate, pH 7.0. The developed reaction is read on a Molecular Devices Analyst or Acquest (or equivalent) plate reader using a 530 nm excitation wavelength filter, a 580 nm emission filter, and 561 nm dichroic filter. The test compounds are prepared in neat DMSO at a concentration of 10 mM. For inhibition curves, compounds are diluted using a three fold serial dilution and tested at 11 concentrations (e.g. 25 μM-0.42 nM). Curves are analysed using ActivityBase and XLfit, and results are expressed as pIC50 values.
Inhibition of FAS can also be quantified based on the detection of the CoA products with a thio-reactive coumarin dye. This assay is run as a […] assay in 384-well format, where the reaction contains 20 μM malonyl-CoA, 20 μM acetyl-CoA, 40 μM NADPH and 2 nM FAS in 50 mM sodium phosphate, pH 7.0, and 0.04% Tween-20. The assay is run by adding […] enzyme solution to a black, low volume assay plate (Greiner 784076) pre-dispensed with 100 nl compound solutions in DMSO. After 30 minutes, 5 μL substrate is added, and the reaction incubated at ambient temperature for an additional 60 minutes. The reaction is then quenched with 100 μL of 6M guanidine-HCl containing 50 μM CPM (7-diethylamino-3-(4′-maleimidylphenyl)-4-methylcoumarin CPM; thio-reactive dye), and incubated for 30 minutes. The plate is read on an Envision (PerkinElmer) or equivalent plate reader using a 380 nm excitation wavelength filter, and a 486 nm emission filter. Data fitting and compound preparations are done as described above.

Chain of FAS (P49327 whole entry): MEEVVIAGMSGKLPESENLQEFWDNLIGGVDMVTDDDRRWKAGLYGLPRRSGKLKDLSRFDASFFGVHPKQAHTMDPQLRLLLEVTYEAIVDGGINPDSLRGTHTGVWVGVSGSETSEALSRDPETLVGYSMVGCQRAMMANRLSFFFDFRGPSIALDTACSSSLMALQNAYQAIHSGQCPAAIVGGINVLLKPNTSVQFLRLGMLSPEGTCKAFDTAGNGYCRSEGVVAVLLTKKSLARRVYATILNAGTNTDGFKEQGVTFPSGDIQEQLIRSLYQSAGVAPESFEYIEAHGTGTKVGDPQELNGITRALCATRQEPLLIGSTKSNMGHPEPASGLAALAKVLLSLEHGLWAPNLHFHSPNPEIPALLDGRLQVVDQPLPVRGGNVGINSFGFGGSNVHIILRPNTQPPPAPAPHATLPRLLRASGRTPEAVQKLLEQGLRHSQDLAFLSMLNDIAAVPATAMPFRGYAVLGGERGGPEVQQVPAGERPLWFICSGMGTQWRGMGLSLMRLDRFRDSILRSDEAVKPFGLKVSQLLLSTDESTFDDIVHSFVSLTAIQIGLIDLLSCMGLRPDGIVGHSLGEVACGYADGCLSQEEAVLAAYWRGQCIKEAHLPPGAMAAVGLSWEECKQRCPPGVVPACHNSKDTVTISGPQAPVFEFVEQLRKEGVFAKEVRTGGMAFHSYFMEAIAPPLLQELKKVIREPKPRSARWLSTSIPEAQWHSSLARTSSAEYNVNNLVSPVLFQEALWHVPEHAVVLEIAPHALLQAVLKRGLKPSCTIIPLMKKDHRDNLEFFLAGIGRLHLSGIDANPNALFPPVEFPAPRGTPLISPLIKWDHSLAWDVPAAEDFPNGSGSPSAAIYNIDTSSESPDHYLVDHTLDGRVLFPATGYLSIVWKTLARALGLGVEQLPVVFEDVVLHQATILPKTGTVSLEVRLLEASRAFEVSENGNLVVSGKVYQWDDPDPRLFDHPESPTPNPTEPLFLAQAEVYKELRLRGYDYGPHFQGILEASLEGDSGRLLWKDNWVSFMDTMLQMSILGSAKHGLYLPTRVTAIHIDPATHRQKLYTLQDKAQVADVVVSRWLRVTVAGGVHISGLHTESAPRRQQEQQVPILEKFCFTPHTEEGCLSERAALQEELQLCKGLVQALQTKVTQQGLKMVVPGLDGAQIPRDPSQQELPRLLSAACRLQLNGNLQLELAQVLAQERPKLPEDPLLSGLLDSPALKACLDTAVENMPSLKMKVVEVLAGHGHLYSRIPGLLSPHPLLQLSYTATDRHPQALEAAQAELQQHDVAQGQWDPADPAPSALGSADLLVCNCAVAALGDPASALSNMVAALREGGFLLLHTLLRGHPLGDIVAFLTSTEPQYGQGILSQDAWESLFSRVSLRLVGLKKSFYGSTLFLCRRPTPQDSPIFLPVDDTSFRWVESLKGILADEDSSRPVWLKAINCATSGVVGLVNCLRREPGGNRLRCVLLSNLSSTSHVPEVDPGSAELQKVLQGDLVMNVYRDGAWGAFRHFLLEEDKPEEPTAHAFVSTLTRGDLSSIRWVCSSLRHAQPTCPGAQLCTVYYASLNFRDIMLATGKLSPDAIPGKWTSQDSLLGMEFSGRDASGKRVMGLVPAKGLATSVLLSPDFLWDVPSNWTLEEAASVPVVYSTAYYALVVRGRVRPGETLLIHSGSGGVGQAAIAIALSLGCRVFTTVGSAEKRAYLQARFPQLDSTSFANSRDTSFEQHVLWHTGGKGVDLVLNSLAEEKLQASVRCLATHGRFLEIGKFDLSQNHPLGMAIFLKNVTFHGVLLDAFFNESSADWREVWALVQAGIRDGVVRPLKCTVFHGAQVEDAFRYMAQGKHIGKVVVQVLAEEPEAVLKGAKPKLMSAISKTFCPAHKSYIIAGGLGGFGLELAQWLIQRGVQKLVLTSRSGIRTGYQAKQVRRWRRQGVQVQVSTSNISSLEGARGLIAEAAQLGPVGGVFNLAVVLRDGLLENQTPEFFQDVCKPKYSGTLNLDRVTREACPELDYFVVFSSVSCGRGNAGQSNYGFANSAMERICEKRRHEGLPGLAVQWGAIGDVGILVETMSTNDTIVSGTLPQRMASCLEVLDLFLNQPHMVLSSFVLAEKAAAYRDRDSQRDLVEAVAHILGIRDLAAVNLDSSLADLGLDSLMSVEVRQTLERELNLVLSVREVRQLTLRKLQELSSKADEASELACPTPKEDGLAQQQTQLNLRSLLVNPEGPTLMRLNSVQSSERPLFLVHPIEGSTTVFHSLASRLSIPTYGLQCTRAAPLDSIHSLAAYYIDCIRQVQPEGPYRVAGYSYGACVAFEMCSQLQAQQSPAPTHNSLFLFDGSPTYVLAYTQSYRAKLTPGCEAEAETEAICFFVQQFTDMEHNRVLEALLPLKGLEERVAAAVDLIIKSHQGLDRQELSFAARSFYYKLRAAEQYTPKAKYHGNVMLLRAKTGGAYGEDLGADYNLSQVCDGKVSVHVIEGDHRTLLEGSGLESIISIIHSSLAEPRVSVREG

| SMILES | IC50 |
| --- | --- |
| O=C1COC2(CCN(C(CO)c3ccc(-c4ccc5cccnc5c4)cc3)CC2)CN1C1CC1 (racemic) [Example 22, 4-cyclopropyl-9-(2-hydroxy-1-(4-(quinolin-7-yl)phenyl)ethyl)-1-oxa-4,9-diazaspiro[5.5]undecan-3-one] | 20 nM |
| CC(c1ccc(-c2ccc3cccnc3c2)cc1)N1CCC2(CC1)CN(C1CC1)C(=O)CO2 (centres unmarked) [Example 13, 4-cyclopropyl-9-(1-(4-(quinolin-7-yl)phenyl)ethyl)-1-oxa-4,9-diazaspiro[5.5]undecan-3-one] | 50 nM |
| O=C(O)CC(c1ccc(-c2ccc3cccnc3c2)cc1)N1CCC2(CC1)CN(C1CC1)C(=O)CO2 (centres unmarked) [Example 6, 3-(4-cyclopropyl-3-oxo-1-oxa-4,9-diazaspiro[5.5]undecan-9-yl)-3-(4-(quinolin-7-yl)phenyl)propanoic acid] | 501 nM |
| NC(=O)C(c1c(F)cc(-c2ccc3cccnc3c2)cc1F)N1CCC2(CC1)CN(C1CC1)C(=O)CO2 (single isomer, unassigned; (+)) [Example 73, (+)-2-(4-cyclopropyl-3-oxo-1-oxa-4,9-diazaspiro[5.5]undecan-9-yl)-2-(2,6-difluoro-4-(quinolin-7-yl)phenyl)acetamide] | 1 nM |
| NC(=O)C(c1ccc(-c2ccc3cccnc3c2)cc1F)N1CCC2(CC1)CN(C1CC1)C(=O)CO2 (single isomer, unassigned; (+)) [Example 9, (+)-2-(4-cyclopropyl-3-oxo-1-oxa-4,9-diazaspiro[5.5]undec-9-yl)-2-[2-fluoro-4-(7-quinolinyl)phenyl]acetamide] | 3 nM |
| COc1c(-c2ccc(C(C(N)=O)N3CCC4(CC3)CN(C3CC3)C(=O)CO4)c(F)c2)ccc2cccnc12 (single isomer, unassigned; (-)) [Example 78, (−)-2-(4-cyclopropyl-3-oxo-1-oxa-4,9-diazaspiro[5.5]undecan-9-yl)-2-(2-fluoro-4-(8-methoxyquinolin-7-yl)phenyl)acetamide] | 4 nM |
| COc1ccc(-c2ccc(C(C(N)=O)N3CCC4(CC3)CN(C3CC3)C(=O)CO4)c(F)c2)cc1 (centres unmarked) [Example 33, 2-(4-cyclopropyl-3-oxo-1-oxa-4,9-diazaspiro[5.5]undecan-9-yl)-2-(3-fluoro-4′-methoxy-[1,1′-biphenyl]-4-yl)acetamide] | 200 nM |
| NC(=O)C(c1ccc(-c2ccc3cccnc3c2)cc1F)N1CCC2(CC1)CN(C1(CO)CC1)C(=O)CO2 (single isomer, unassigned; (-)) [Example 30, (−)-2-(2-fluoro-4-(quinolin-7-yl)phenyl)-2-(4-(1-(hydroxymethyl)cyclopropyl)-3-oxo-1-oxa-4,9-diazaspiro[5.5]undecan-9-yl)acetamide] | 3 nM |
